Assays:
hepatic GSH = conditions: mice; 100 mg/kg to 600 mg/kg; cited from earlier work
[1] = Ethanol release testing at 100 rpm paddle speed (Example 29); type: physicochemical; conditions: release from the formulation

Structure (SMILES): CC(=O)Nc1ccc(O)cc1 [acetaminophen]
- Onset of circulating hepatic GSH changes after administration (hepatic GSH): ≤ 15 min
- Percent Release, Mean ([1]; 0% Ethanol, 15 Min): 52.2%
- Percent Release, Mean ([1]; 0% Ethanol, 30 Min): 54.6%
- Percent Release, Mean ([1]; 0% Ethanol, 45 Min): 56.8%
- Percent Release, Mean ([1]; 0% Ethanol, 60 Min): 58.8%
- Percent Release, Mean ([1]; 0% Ethanol, 75 Min): 60.8%
- Percent Release, Mean ([1]; 0% Ethanol, 90 Min): 62.6%
- Percent Release, Mean ([1]; 0% Ethanol, 105 Min): 64.3%
- Percent Release, Mean ([1]; 0% Ethanol, 120 Min): 66.0%
- Percent Release, Mean ([1]; 0% Ethanol, 240 Min): 78.6%
- Percent Release, Mean ([1]; 0% Ethanol, 480 Min): 95.5%
- Percent Release, Mean ([1]; 5% Ethanol, 15 Min): 52.6%
- Percent Release, Mean ([1]; 5% Ethanol, 30 Min): 55.1%
- Percent Release, Mean ([1]; 5% Ethanol, 45 Min): 57.1%
- Percent Release, Mean ([1]; 5% Ethanol, 60 Min): 58.9%
- Percent Release, Mean ([1]; 5% Ethanol, 75 Min): 60.7%
- Percent Release, Mean ([1]; 5% Ethanol, 90 Min): 62.3%
- Percent Release, Mean ([1]; 5% Ethanol, 105 Min): 63.9%
- Percent Release, Mean ([1]; 5% Ethanol, 120 Min): 65.5%
- Percent Release, Mean ([1]; 5% Ethanol, 240 Min): 77.2%
- Percent Release, Mean ([1]; 5% Ethanol, 480 Min): 94.4%
- Percent Release, Mean ([1]; 10% Ethanol, 15 Min): 51.7%
- Percent Release, Mean ([1]; 10% Ethanol, 30 Min): 54.1%
- Percent Release, Mean ([1]; 10% Ethanol, 45 Min): 56.0%
- Percent Release, Mean ([1]; 10% Ethanol, 60 Min): 57.8%
- Percent Release, Mean ([1]; 10% Ethanol, 75 Min): 59.5%
- Percent Release, Mean ([1]; 10% Ethanol, 90 Min): 61.1%
- Percent Release, Mean ([1]; 10% Ethanol, 105 Min): 62.6%
- Percent Release, Mean ([1]; 10% Ethanol, 120 Min): 64.1%
- Percent Release, Mean ([1]; 10% Ethanol, 240 Min): 75.5%
- Percent Release, Mean ([1]; 10% Ethanol, 480 Min): 93.5%
- Percent Release, Mean ([1]; 20% Ethanol, 15 Min): 50.2%
- Percent Release, Mean ([1]; 20% Ethanol, 30 Min): 53.4%
- Percent Release, Mean ([1]; 20% Ethanol, 45 Min): 55.5%
- Percent Release, Mean ([1]; 20% Ethanol, 60 Min): 57.3%
- Percent Release, Mean ([1]; 20% Ethanol, 75 Min): 59.0%
- Percent Release, Mean ([1]; 20% Ethanol, 90 Min): 60.5%
- Percent Release, Mean ([1]; 20% Ethanol, 105 Min): 61.9%
- Percent Release, Mean ([1]; 20% Ethanol, 120 Min): 63.3%
- Percent Release, Mean ([1]; 20% Ethanol, 240 Min): 76.0%
- Percent Release, Mean ([1]; 20% Ethanol, 480 Min): 91.9%
- Percent Release, Mean ([1]; 40% Ethanol, 15 Min): 16.7%
- Percent Release, Mean ([1]; 40% Ethanol, 30 Min): 30.4%
- Percent Release, Mean ([1]; 40% Ethanol, 45 Min): 38.5%
- Percent Release, Mean ([1]; 40% Ethanol, 60 Min): 43.1%
- Percent Release, Mean ([1]; 40% Ethanol, 75 Min): 46.1%
- Percent Release, Mean ([1]; 40% Ethanol, 90 Min): 48.3%
- Percent Release, Mean ([1]; 40% Ethanol, 105 Min): 49.8%
- Percent Release, Mean ([1]; 40% Ethanol, 120 Min): 51.1%
- Percent Release, Mean ([1]; 40% Ethanol, 240 Min): 60.8%
- Percent Release, Mean ([1]; 40% Ethanol, 480 Min): 77.2%

— US20170182033A1, “PHARMACEUTICAL COMPOSITIONS FOR EXTENDED RELEASE OF OXYCODONE AND ACETAMINOPHEN RESULTING IN A QUICK ONSET AND PROLONGED PERIOD OF ANALGESIA” (priority 2011, published 2017)
